From ChEMBL document CHEMBL3046656, “Apoptotic effects of some carbazole derivatives on lung carcinoma and glioma cell lines” (Med Chem Res, 2013)
In brackets after ≈: the same amount, converted by molar mass. Activity calls are given as the source filed them. The calls are words filed in the database; no cut-off is given here.

The compounds below were run on A549 (assay: Inhibition of nuclear DNA synthesis in Homo sapiens (human) A549 cells assessed as decrease in bromodeoxyuridine incorporation measured during S phase after 24 hr by ELISA). Conditions: not given.
Type: functional, cell-based

Structure (SMILES) | inhibition
CCN(CC)C(=S)SCC(=O)Nc1ccc2c(c1)c1ccccc1n2CC | Dose-dependent effect
CCn1c2ccccc2c2cc(NC(=O)CSC(=S)N3CCN(c4ccccc4)CC3)ccc21 | Dose-dependent effect
CCn1c2ccccc2c2cc(NC(=O)CSC(=S)N3CCCCC3)ccc21 | Dose-dependent effect
CCN1CCN(C(=S)SCC(=O)Nc2ccc3c(c2)c2ccccc2n3CC)CC1 | Dose-dependent effect
CCn1c2ccccc2c2cc(NC(=O)CSC(=S)N3CCC(C)CC3)ccc21 | Dose-dependent effect
CCn1c2ccccc2c2cc(NC(=O)CSC(=S)N3CCN(Cc4ccccc4)CC3)ccc21 | Dose-dependent effect

The compounds below were run against Acetylcholinesterase (Electrophorus electricus, UniProt O42275) (assay: Inhibition of Electrophorus electricus (electric eel) AChE using acetylthiocholine iodide as substrate incubated for 15 min prior to substrate addition measured after 30 min by Ellman's spectrophotometric method). Conditions: not given.
Sequence of Acetylcholinesterase (O42275 whole entry): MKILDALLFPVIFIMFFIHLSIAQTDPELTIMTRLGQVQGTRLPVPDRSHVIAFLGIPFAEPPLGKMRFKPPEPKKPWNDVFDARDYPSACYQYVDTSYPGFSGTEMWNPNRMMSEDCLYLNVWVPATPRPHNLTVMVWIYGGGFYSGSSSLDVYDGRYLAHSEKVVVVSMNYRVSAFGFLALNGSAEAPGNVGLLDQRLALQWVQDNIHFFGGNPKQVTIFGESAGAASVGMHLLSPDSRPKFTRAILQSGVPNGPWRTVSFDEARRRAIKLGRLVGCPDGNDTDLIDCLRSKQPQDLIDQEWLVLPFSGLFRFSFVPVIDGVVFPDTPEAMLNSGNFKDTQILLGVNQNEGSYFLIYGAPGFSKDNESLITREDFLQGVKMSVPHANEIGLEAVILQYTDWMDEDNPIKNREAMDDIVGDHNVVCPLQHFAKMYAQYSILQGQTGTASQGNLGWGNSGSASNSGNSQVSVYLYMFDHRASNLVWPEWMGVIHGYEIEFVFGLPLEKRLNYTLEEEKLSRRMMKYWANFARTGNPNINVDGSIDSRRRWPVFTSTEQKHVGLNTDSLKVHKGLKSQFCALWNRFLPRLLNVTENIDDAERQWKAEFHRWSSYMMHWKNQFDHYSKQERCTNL

Structure (SMILES) | IC50
CCN(CC)C(=S)SCC(=O)Nc1ccc2c(c1)c1ccccc1n2CC | > 200 µM
CCn1c2ccccc2c2cc(NC(=O)CSC(=S)N3CCN(c4ccccc4)CC3)ccc21 | > 164 µM
CCn1c2ccccc2c2cc(NC(=O)CSC(=S)N3CCCCC3)ccc21 | > 194 µM
CCN1CCN(C(=S)SCC(=O)Nc2ccc3c(c2)c2ccccc2n3CC)CC1 | > 182 µM
CCn1c2ccccc2c2cc(NC(=O)CSC(=S)N3CCC(C)CC3)ccc21 | > 188 µM
CCn1c2ccccc2c2cc(NC(=O)CSC(=S)N3CCN(Cc4ccccc4)CC3)ccc21 | > 159 µM

These compounds were tested against Acetylcholinesterase (Electrophorus electricus) (UniProt O42275) (assay: Inhibition of Electrophorus electricus (electric eel) AChE using acetylthiocholine iodide as substrate at 80 ug/mL incubated for 15 min prior to substrate addition measured after 30 min by Ellman's spectrophotometric method relative to control). Conditions: not given.
Sequence of Acetylcholinesterase (Electrophorus electricus) (O42275 24-633 limits assumed): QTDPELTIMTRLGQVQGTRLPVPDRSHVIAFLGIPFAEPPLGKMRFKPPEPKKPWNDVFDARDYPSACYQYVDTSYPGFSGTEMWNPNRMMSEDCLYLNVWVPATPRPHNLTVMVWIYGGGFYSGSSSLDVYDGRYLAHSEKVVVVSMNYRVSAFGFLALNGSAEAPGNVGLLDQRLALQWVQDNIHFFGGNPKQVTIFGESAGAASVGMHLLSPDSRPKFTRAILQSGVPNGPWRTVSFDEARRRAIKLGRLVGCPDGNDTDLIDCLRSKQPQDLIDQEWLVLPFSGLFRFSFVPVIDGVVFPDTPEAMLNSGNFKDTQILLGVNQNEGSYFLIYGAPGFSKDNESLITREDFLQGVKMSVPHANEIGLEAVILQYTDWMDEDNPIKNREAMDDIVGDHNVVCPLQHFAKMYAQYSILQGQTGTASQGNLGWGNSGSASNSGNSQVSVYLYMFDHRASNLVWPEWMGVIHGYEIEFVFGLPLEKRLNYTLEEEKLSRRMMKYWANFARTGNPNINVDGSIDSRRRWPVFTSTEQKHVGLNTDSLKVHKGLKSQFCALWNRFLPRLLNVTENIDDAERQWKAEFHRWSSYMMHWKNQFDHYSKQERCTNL

Structure (SMILES) | inhibition
CCN(CC)C(=S)SCC(=O)Nc1ccc2c(c1)c1ccccc1n2CC | 18.3%
CCn1c2ccccc2c2cc(NC(=O)CSC(=S)N3CCN(c4ccccc4)CC3)ccc21 | 26.6%
CCn1c2ccccc2c2cc(NC(=O)CSC(=S)N3CCCCC3)ccc21 | 11.3%
CCN1CCN(C(=S)SCC(=O)Nc2ccc3c(c2)c2ccccc2n3CC)CC1 | 19.6%
CCn1c2ccccc2c2cc(NC(=O)CSC(=S)N3CCC(C)CC3)ccc21 | 23.6%
CCn1c2ccccc2c2cc(NC(=O)CSC(=S)N3CCN(Cc4ccccc4)CC3)ccc21 | 12.8%

Each compound was assayed on C6 (assay: Cytotoxicity against Rattus norvegicus (rat) C6 cells after 24 hr by MTT assay). Conditions: C6, 24 h.
Type: functional, cell-based

Structure (SMILES) | IC50
CCN(CC)C(=S)SCC(=O)Nc1ccc2c(c1)c1ccccc1n2CC | 64.3 µg/mL (≈ 161 µM)
CCn1c2ccccc2c2cc(NC(=O)CSC(=S)N3CCN(c4ccccc4)CC3)ccc21 | 143 µg/mL (≈ 293 µM)
CCn1c2ccccc2c2cc(NC(=O)CSC(=S)N3CCCCC3)ccc21 | 198 µg/mL (≈ 482 µM)
CCN1CCN(C(=S)SCC(=O)Nc2ccc3c(c2)c2ccccc2n3CC)CC1 | 20 µg/mL (≈ 45.4 µM)
CCn1c2ccccc2c2cc(NC(=O)CSC(=S)N3CCC(C)CC3)ccc21 | 167 µg/mL (≈ 392 µM)
CCn1c2ccccc2c2cc(NC(=O)CSC(=S)N3CCN(Cc4ccccc4)CC3)ccc21 | 170 µg/mL (≈ 338 µM)

These compounds were tested on C6 (assay: Inhibition of nuclear DNA synthesis in Rattus norvegicus (rat) C6 cells assessed as decrease in bromodeoxyuridine incorporation measured during S phase after 24 hr by ELISA). Conditions: not given.
Type: functional, cell-based

Structure (SMILES) | inhibition
CCN(CC)C(=S)SCC(=O)Nc1ccc2c(c1)c1ccccc1n2CC | Dose-dependent effect
CCn1c2ccccc2c2cc(NC(=O)CSC(=S)N3CCN(c4ccccc4)CC3)ccc21 | Dose-dependent effect
CCn1c2ccccc2c2cc(NC(=O)CSC(=S)N3CCCCC3)ccc21 | Dose-dependent effect
CCN1CCN(C(=S)SCC(=O)Nc2ccc3c(c2)c2ccccc2n3CC)CC1 | Dose-dependent effect
CCn1c2ccccc2c2cc(NC(=O)CSC(=S)N3CCC(C)CC3)ccc21 | Dose-dependent effect
CCn1c2ccccc2c2cc(NC(=O)CSC(=S)N3CCN(Cc4ccccc4)CC3)ccc21 | Dose-dependent effect

The compounds below were run on NIH3T3 (assay: Cytotoxicity against Mus musculus (mouse) NIH/3T3 cells after 24 hr by MTT assay). Conditions: NIH3T3, 24 h.
Type: cell-based

Structure (SMILES) | IC50
CCN(CC)C(=S)SCC(=O)Nc1ccc2c(c1)c1ccccc1n2CC | 390 µg/mL (≈ 976 µM)
CCn1c2ccccc2c2cc(NC(=O)CSC(=S)N3CCN(c4ccccc4)CC3)ccc21 | 357 µg/mL (≈ 730 µM)
CCn1c2ccccc2c2cc(NC(=O)CSC(=S)N3CCCCC3)ccc21 | 393 µg/mL (≈ 956 µM)
CCN1CCN(C(=S)SCC(=O)Nc2ccc3c(c2)c2ccccc2n3CC)CC1 | < 3.9 µg/mL
CCn1c2ccccc2c2cc(NC(=O)CSC(=S)N3CCC(C)CC3)ccc21 | > 500 µg/mL
CCn1c2ccccc2c2cc(NC(=O)CSC(=S)N3CCN(Cc4ccccc4)CC3)ccc21 | 110 µg/mL (≈ 218 µM)

The compounds below were run on A549 (assay: Inhibition of nuclear DNA synthesis in Homo sapiens (human) A549 cells assessed as decrease in bromodeoxyuridine incorporation measured during S phase at 15.6 to 62.5 ug/mL after 24 hr by ELISA). Conditions: not given.
Type: functional

Structure (SMILES) | inhibition
CCN(CC)C(=S)SCC(=O)Nc1ccc2c(c1)c1ccccc1n2CC | Active
CCn1c2ccccc2c2cc(NC(=O)CSC(=S)N3CCN(c4ccccc4)CC3)ccc21 | Active
CCn1c2ccccc2c2cc(NC(=O)CSC(=S)N3CCCCC3)ccc21 | Active
CCN1CCN(C(=S)SCC(=O)Nc2ccc3c(c2)c2ccccc2n3CC)CC1 | Active
CCn1c2ccccc2c2cc(NC(=O)CSC(=S)N3CCC(C)CC3)ccc21 | Active
CCn1c2ccccc2c2cc(NC(=O)CSC(=S)N3CCN(Cc4ccccc4)CC3)ccc21 | Active

The compounds below were run on A549 (assay: Cytotoxicity against Homo sapiens (human) A549 cells after 24 hr by MTT assay). Conditions: A549, 24 h.
Type: functional, cell-based

Structure (SMILES) | IC50
CCN(CC)C(=S)SCC(=O)Nc1ccc2c(c1)c1ccccc1n2CC | 41.7 µg/mL (≈ 104 µM)
CCn1c2ccccc2c2cc(NC(=O)CSC(=S)N3CCN(c4ccccc4)CC3)ccc21 | 193 µg/mL (≈ 395 µM)
CCn1c2ccccc2c2cc(NC(=O)CSC(=S)N3CCCCC3)ccc21 | 177 µg/mL (≈ 429 µM)
CCN1CCN(C(=S)SCC(=O)Nc2ccc3c(c2)c2ccccc2n3CC)CC1 | 61.7 µg/mL (≈ 140 µM)
CCn1c2ccccc2c2cc(NC(=O)CSC(=S)N3CCC(C)CC3)ccc21 | 313 µg/mL (≈ 736 µM)
CCn1c2ccccc2c2cc(NC(=O)CSC(=S)N3CCN(Cc4ccccc4)CC3)ccc21 | 107 µg/mL (≈ 212 µM)
